# Test results published in patent publication US7531646B2, “β-D-ribosidase activity indicators with a chromogenic substrate” (priority 2001, dated 2009).
# Legend:
# Assay in all cases: Substrate hydrolysis on Columbia agar
# Type in all cases: cell-based
# E. coli 0157 = conditions: 300 mg/l, 18 hours
# Shigella dysenteriae = conditions: 300 mg/l, 18 hours
# Hafnia alvei = conditions: 300 mg/l, 18 hours
# K. oxytoca = conditions: 300 mg/l, 18 hours
# C. freundii = conditions: 300 mg/l, 18 hours
# Serratia marcescens = Serratia marcescens NCTC 10211; 300 mg/l; 18 hours
# Salmonella typhimurium = Salmonella typhimurium NCTC 74; 300 mg/l; 18 hours
# A. baumanii = A. baumanii ATCC 19606; 300 mg/l; 18 hours
# A. calcoaceticus = A. calcoaceticus ATCC 7844; 300 mg/l; 18 hours
# P. aeruginosa = conditions: 300 mg/l, 18 hours
# P. rettgeri = P. rettgeri NCTC 7475; 300 mg/l; 18 hours
# Providencia stuartii = conditions: 300 mg/l, 18 hours
# P. vulgaris = conditions: 300 mg/l, 18 hours
# P. penneri = P. penneri PPE 1; 300 mg/l; 18 hours
# Vibrio furnissii = Vibrio furnissii NCTC 11218; 300 mg/l; 18 hours
# Vibrio cholerae = conditions: 300 mg/l, 18 hours
# Vibrio harveyi = Vibrio harveyi NCTC 11346; 300 mg/l; 18 hours
# Vibrio vulnificus = conditions: 300 mg/l, 18 hours
# Vibrio fluvialis = system: Vibrio fluvialis; set-up: key to the marks not given beside the values; conditions: Vibrio fluvialis NCTC 11327; 300 mg/l; 18 hours
# Vibrio alcaligenes = Vibrio alcaligenes NCTC 12160; 300 mg/l; 18 hours
# [1] = system: Streptococcus constellatus; conditions: Streptococcus constellatus NCTC 11325; 300 mg/l; 18 hours
# Streptococcus milleri = Streptococcus milleri wild; 300 mg/l; 18 hours
# [2] = system: Haemolytic streptococcus A; conditions: 300 mg/l, 18 hours
# Listeria seerigeri = Listeria seerigeri PHLS wild; 300 mg/l; 18 hours
# Listeria ivanovii = Listeria ivanovii PHLS wild; 300 mg/l; 18 hours
# Staphylococcus aureus = conditions: 300 mg/l, 18 hours
# [3] = system: Staphylococcus saprophyticus; conditions: 300 mg/l, 18 hours
# Enterococcus mundtii = Enterococcus mundtii NCTC 12363; 300 mg/l; 18 hours
# Enterococcus casseflavus = Enterococcus casseflavus NCTC 12361; 300 mg/l; 18 hours
# Enterococcus faecalis = conditions: 300 mg/l, 18 hours
substance,measurement,setting,value
"3′,4′-dihydroxyflavone-4′-β-D-glucopyranoside sodium salt [DHF-glucoside]",Hydrolysis by Gram negative bacteria,E. coli 0157; E. coli 0157 NCTC 12079,−
same,Hydrolysis by Gram negative bacteria,E. coli 0157; E. coli 0157 NCTC 12080,−
same,Hydrolysis by Gram negative bacteria,E. coli 0157; E. coli 0157 NCTC 12900,−
same,Hydrolysis by Gram negative bacteria,E. coli 0157; E. coli 0157 NCTC 13125,−
same,Hydrolysis by Gram negative bacteria,E. coli 0157; E. coli 0157 NCTC 13126,−
same,Hydrolysis by Gram negative bacteria,E. coli 0157; E. coli 0157 NCTC 13127,−
same,Hydrolysis by Gram negative bacteria,E. coli 0157; E. coli 0157 NCTC 13128,−
same,Hydrolysis by Gram negative bacteria,Shigella dysenteriae; Shigella dysenteriae (type 2) NCTC 9952,−
same,Hydrolysis by Gram negative bacteria,Shigella dysenteriae; Shigella dysenteriae (type 3) NCTC 9720,−
same,Hydrolysis by Gram negative bacteria,Shigella dysenteriae; Shigella dysenteriae (type 4) NCTC 9759,−
same,Hydrolysis by Gram negative bacteria,Hafnia alvei; Hafnia alvei HAL 2,−
same,Hydrolysis by Gram negative bacteria,Hafnia alvei; Hafnia alvei NCTC 8105,−
same,Hydrolysis by Gram negative bacteria,K. oxytoca; K. oxytoca KOX 1,+
same,Hydrolysis by Gram negative bacteria,K. oxytoca; K. oxytoca KOX 2,+
same,Hydrolysis by Gram negative bacteria,C. freundii; C. freundii CFR 1,+
same,Hydrolysis by Gram negative bacteria,C. freundii; C. freundii CFR 2,−
same,Hydrolysis by Gram negative bacteria,C. freundii; C. freundii CFR 3,−
same,Hydrolysis by Gram negative bacteria,C. freundii; C. freundii CFR 4,+
same,Hydrolysis by Gram negative bacteria,C. freundii; C. freundii NCTC 9750,+
same,Hydrolysis by Gram negative bacteria,Serratia marcescens,+
same,Hydrolysis by Gram negative bacteria,Salmonella typhimurium,−
same,Hydrolysis by Gram negative bacteria,A. baumanii,−
same,Hydrolysis by Gram negative bacteria,A. calcoaceticus,−
same,Hydrolysis by Gram negative bacteria,P. aeruginosa; P. aeruginosa ATCC 10145,−
same,Hydrolysis by Gram negative bacteria,P. aeruginosa; P. aeruginosa NCTC 10662,−
same,Hydrolysis by Gram negative bacteria,P. rettgeri,+
same,Hydrolysis by Gram negative bacteria,Providencia stuartii; Providencia stuartii PST 1,+
same,Hydrolysis by Gram negative bacteria,Providencia stuartii; Providencia stuartii PST 2,+
same,Hydrolysis by Gram negative bacteria,P. vulgaris; P. vulgaris PVU 2,−
same,Hydrolysis by Gram negative bacteria,P. vulgaris; P. vulgaris PVU 4,−
same,Hydrolysis by Gram negative bacteria,P. vulgaris; P. vulgaris PVU 5,−
same,Hydrolysis by Gram negative bacteria,P. penneri,−
same,Hydrolysis by Gram negative bacteria,Vibrio furnissii,−
same,Hydrolysis by Gram negative bacteria,Vibrio cholerae; Vibrio cholera NCTC 6585,−
same,Hydrolysis by Gram negative bacteria,Vibrio cholerae; Vibrio cholera NCTC 7270,−
same,Hydrolysis by Gram negative bacteria,Vibrio cholerae; Vibrio cholera NCTC 8021,−
same,Hydrolysis by Gram negative bacteria,Vibrio cholerae; Vibrio cholera NCTC 10732,−
same,Hydrolysis by Gram negative bacteria,Vibrio cholerae; Vibrio cholera NCTC 12945,−
same,Hydrolysis by Gram negative bacteria,Vibrio cholerae; Vibrio cholerae NCTC 7254,−
same,Hydrolysis by Gram negative bacteria,Vibrio cholerae; Vibrio cholerae NCTC 8042,−
same,Hydrolysis by Gram negative bacteria,Vibrio cholerae; Vibrio cholerae NCTC 10255,−
same,Hydrolysis by Gram negative bacteria,Vibrio cholerae; Vibrio cholerae NCTC 10954,−
same,Hydrolysis by Gram negative bacteria,Vibrio harveyi,+
same,Hydrolysis by Gram negative bacteria,Vibrio vulnificus; Vibrio vulnificus NCTC 11066,+
same,Hydrolysis by Gram negative bacteria,Vibrio vulnificus; Vibrio vulnificus NCTC 11067,+
same,Hydrolysis by Gram negative bacteria,Vibrio fluvialis,++
same,Hydrolysis by Gram negative bacteria,Vibrio alcaligenes,−
same,Hydrolysis by Gram positive organisms,[1],−
same,Hydrolysis by Gram positive organisms,Streptococcus milleri,−
same,Hydrolysis by Gram positive organisms,[2]; Haemolytic streptococcus A 1,−
same,Hydrolysis by Gram positive organisms,[2]; Haemolytic streptococcus A 2,−
same,Hydrolysis by Gram positive organisms,[2]; Haemolytic streptococcus A 3,−
same,Hydrolysis by Gram positive organisms,Listeria seerigeri,++
same,Hydrolysis by Gram positive organisms,Listeria ivanovii,++
same,Hydrolysis by Gram positive organisms,Staphylococcus aureus; Staphylococcus aureus 1,−
same,Hydrolysis by Gram positive organisms,Staphylococcus aureus; Staphylococcus aureus 2,−
same,Hydrolysis by Gram positive organisms,Staphylococcus aureus; Staphylococcus aureus 3,−
same,Hydrolysis by Gram positive organisms,Staphylococcus aureus; Staphylococcus aureus 4,−
same,Hydrolysis by Gram positive organisms,Staphylococcus aureus; Staphylococcus aureus 5,−
same,Hydrolysis by Gram positive organisms,[3]; Staphylococcus saprophyticus 1,−
same,Hydrolysis by Gram positive organisms,[3]; Staphylococcus saprophyticus 2,−
same,Hydrolysis by Gram positive organisms,[3]; Staphylococcus saprophyticus 3,−
same,Hydrolysis by Gram positive organisms,[3]; Staphylococcus saprophyticus 4,−
same,Hydrolysis by Gram positive organisms,[3]; Staphylococcus saprophyticus 5,−
same,Hydrolysis by Gram positive organisms,Enterococcus mundtii,++
same,Hydrolysis by Gram positive organisms,Enterococcus casseflavus,++
same,Hydrolysis by Gram positive organisms,Enterococcus faecalis; Enterococcus faecalis 1,++
same,Hydrolysis by Gram positive organisms,Enterococcus faecalis; Enterococcus faecalis 2,++
same,Hydrolysis by Gram positive organisms,Enterococcus faecalis; Enterococcus faecalis 3,++
same,Hydrolysis by Gram positive organisms,Enterococcus faecalis; Enterococcus faecalis 4,++
same,Hydrolysis by Gram positive organisms,Enterococcus faecalis; Enterococcus faecalis 5,++
same,Hydrolysis by Gram positive organisms,Enterococcus faecalis; Enterococcus faecalis 6,++
same,Hydrolysis by Gram positive organisms,Enterococcus faecalis; Enterococcus faecalis 7,++
